Measured values as given in paper PMC4475277 (Chemistry & biology, 2015).

Experiments:
bsNOS (WT) = molecular target: T1, bsNOS (WT) (Bacillus subtilis, UniProt O34453); conditions: read-out: WT - KS; imidazole displacement; ref Wang et al., 2004; cited from earlier work
T1 sequence (O34453 1-363): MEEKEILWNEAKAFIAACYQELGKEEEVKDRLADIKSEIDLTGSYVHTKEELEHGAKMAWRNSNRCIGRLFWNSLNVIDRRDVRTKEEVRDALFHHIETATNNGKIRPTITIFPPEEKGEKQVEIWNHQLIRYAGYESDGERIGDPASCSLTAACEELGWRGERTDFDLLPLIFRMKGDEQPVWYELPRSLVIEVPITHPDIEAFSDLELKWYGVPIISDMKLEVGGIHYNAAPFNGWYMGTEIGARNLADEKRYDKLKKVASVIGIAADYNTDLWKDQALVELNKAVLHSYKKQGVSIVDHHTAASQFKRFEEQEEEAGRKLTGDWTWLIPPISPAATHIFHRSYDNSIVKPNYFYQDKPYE

I218V bsNOS = I218V bsNOS (Bacillus subtilis, UniProt O34453, I218V); conditions: read-out: I218V - KS; imidazole displacement; ref Wang et al., 2004; cited from earlier work
[1] = tested on: bBiDomain (a chimera of bsNOS and redox partner YkuN); assay: bBiDomain single time point bacterial NOS activity inhibition; assay type: biochemical, Bacillus subtilis; conditions: inhibitor 30 µM, NOHA 200 µM, 4 min at 35 °C

Sequence of I218V bsNOS (O34453 whole entry I218V): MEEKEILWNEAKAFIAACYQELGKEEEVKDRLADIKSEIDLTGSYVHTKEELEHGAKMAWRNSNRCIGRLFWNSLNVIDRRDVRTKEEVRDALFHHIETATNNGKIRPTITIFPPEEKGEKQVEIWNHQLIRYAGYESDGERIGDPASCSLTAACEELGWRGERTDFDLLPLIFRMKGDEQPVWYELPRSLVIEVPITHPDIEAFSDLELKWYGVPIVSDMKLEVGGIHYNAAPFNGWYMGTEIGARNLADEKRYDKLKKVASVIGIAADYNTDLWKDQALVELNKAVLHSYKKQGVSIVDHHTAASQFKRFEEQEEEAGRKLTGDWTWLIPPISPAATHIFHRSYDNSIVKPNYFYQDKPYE

| Compound | Kd (bsNOS (WT)) [µM] | Kd (I218V bsNOS) [µM] | % nitrite (nitrite with inhibitor divided by nitrite without inhibitor) [1] [% nitrite] |
| --- | --- | --- | --- |
| N=C(N)NCCC[C@H](N)C(=O)O [L-Arg] | 4.8 ± 0.1 | 2 ± 0.2 |  |
| NC(=NCCC[C@H](N)C(=O)O)N[N+](=O)[O-] [L-NNA] |  |  | 40.9 ± 5.3 |
